Results published in ChEMBL document CHEMBL3046912, “Effectiveness of 1,3-dichloropropene as an alternative to methyl bromide in rotations of tomato (Solanum lycopersicum) and cucumber (Cucumis sativus) in China” (2012).

Columns and labels:
Format in all cases: functional
[1] = tested on: Arenaria serpyllifolia; test: Herbicidal activity against Arenaria serpyllifolia in tomato plants fields exposed to 120 L/ha compound fumigation treatment assessed as hand weeding time per plot relative to untreated control
[2] = tested on: Solanum lycopersicum; test: Increase in plant height of Solanum lycopersicum (tomato) exposed to 90 L/ha compound fumigation treatment measured 30 days after compound treatment (reference value: 28.4 cm)
[3] = tested on: Meloidogyne incognita; test: Nematicidal activity against Meloidogyne incognita (root-knot nematode) in tomato growing fields exposed to 90 L/ha compound fumigation treatment assessed as root galling index measured 20 days after compound treatment (reference value: 8.51 root galling index)
[4] = tested on: Arenaria serpyllifolia; test: Herbicidal activity against Arenaria serpyllifolia in cucumber plants fields exposed to 180 L/ha compound fumigation treatment assessed as hand weeding time per plot (reference value: 258.3 hr/ha)
[5] = tested on: Arenaria serpyllifolia; test: Herbicidal activity against Arenaria serpyllifolia in tomato plants fields exposed to 180 L/ha compound fumigation treatment assessed as hand weeding time per plot (reference value: 243.3 hr/ha)
[6] = tested on: Solanum lycopersicum; test: Increase in plant height of Solanum lycopersicum (tomato) exposed to 90 L/ha compound fumigation treatment measured 50 days after compound treatment (reference value: 86.2 cm)

Cl/C=C/CCl [1,3-DICHLOROPROPENE]
Activity [1]: 45%
Activity [2]: 32.4 cm
Root_galling_index [3]: 3.28
Time [4]: 62.3 hr/ha
Time [5]: 55.6 hr/ha
Activity [6]: 98.3 cm
